Source: PubChem BioAssay AID179 (DTP/NCI, 2004)
Calls of active or inactive are those of the source.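 How the source made its calls: active means compounds giving half or more protection of infected cells from virus-caused growth loss, again on retest; inactive means the rest.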 Where a SMILES comes first, the peptide text is derived from it. [ ]: non-standard residue; d: D form. The star is where a group is joined. ξ: configuration not given here. X13 = COc1ccc(C(N*)c2ccc(OC)cc2)cc1; NMeF = CN[C@@H](Cc1ccccc1)C(=O)O; NMeD = CN[C@@H](CC(=O)O)C(=O)O; NMeV = CN[C@H](C(=O)O)C(C)C; ξNMeV = CNC(C(=O)O)C(C)C; Boc = CC(C)(C)OC(=O)*; ξNMeA = CNC(C)C(=O)O; ξV = CC(C)C(N)C(=O)O

System: CEM cells HIV-1 protection, formazan growth assay
Test: NCI AIDS Antiviral Assay
Conditions: for IC50: measured here: growth of uninfected CEM cells
How it was run: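 Steps: treat uninfected and HIV-1-infected human CEM cells at five drug levels; quantify growth by soluble formazan; retest any compound reaching 50% protection; classify actives from the retest.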

| Compound | EC50 [µM] | IC50 [µM] | outcome |
| --- | --- | --- | --- |
| COc1ccc(C23C(=O)c4ccccc4N2O[C@H]2C(=O)N(c4ccccc4)C(=O)[C@H]23)cc1 (stereo partly specified) | > 31.6 | > 31.6 | – |
| C[C@H]1Oc2cc(O)c3ccc(=O)oc3c2C(=O)[C@@H]1C | > 200 | 17 | – |
| CC(C)(C)C1CCP(=O)(c2ccccc2)CC1 (stereo unspecified) | 0.0631 | > 200 | – |
| COC(OC)c1cc2c(cc1C=O)OCO2 | – | – | inactive |
| N#Cc1c(N)c2c(c(-c3ccccc3)c1-c1ccccc1)C(=O)N(O)C2=O | > 200 | 44.7 | – |
| Cc1ccc2c(n1)NC(=O)C(Cc1ccccc1)(N=[N+]=[N-])C2=O (stereo unspecified) | > 200 | > 200 | – |
| CCCCNC1=C(C(=O)OCC)/C(=N/NC(=O)c2ccccc2O)CO1 | > 83.2 | 13.2 | – |
| O=C1CCCC/C1=C\c1ccc(Cl)c(Cl)c1 | – | – | inactive |
| CCOC(=O)/C=C(\N=P(c1ccccc1)(c1ccccc1)c1ccccc1)C(F)(F)C(F)(F)C(F)(F)C(F)(F)C(F)(F)F | > 200 | > 200 | – |
| Cc1cc(Cl)ccc1NC(=O)C(=O)Cc1ccc([N+](=O)[O-])c([N+](=O)[O-])c1CC(=O)C(=O)Nc1ccc(Cl)cc1C | > 309 | 129 | – |
| O=C(NCc1ccccc1)OCCO | – | – | inactive |
| CC1CC(C)(C)NC2(CCCC2)N1 (stereo unspecified) | > 200 | > 200 | – |
| N#Cc1ccccc1Sc1ccccc1N | > 158 | > 158 | – |
| CC(C)c1cccc(C(C)C)c1NC1=CC(=O)C(=O)c2ccccc21 | > 30.2 | > 30.2 | – |
| COc1cccc(-c2nc(-c3cnccn3)n(C3OC(CO)C(O)C3O)n2)c1 (stereo unspecified) | > 200 | > 200 | – |
| COC12OCCN(C)C1=CC(=O)C1N=NCC12 (stereo unspecified) | – | – | inactive |
| N#Cc1ccc(C2NN=CC23C(=O)c2ccccc2OC3c2ccccc2)cc1 (stereo unspecified) | > 200 | 64.6 | – |
| O=c1c2ccccc2[se]n1-c1ccc(I)cc1 | > 11 | 10.7 | – |
| C[C@H](C(=O)O)C(=O)NC(=O)N(Cc1ccccc1)N=O | – | – | inactive |
| Cc1ccc(SC2CC3CC2C2COCC32)cc1 (stereo unspecified) | > 85.1 | 47.9 | – |
| CN(C)c1ccc(/C=C2/N=C(c3ccccc3)OC2=O)cc1 | > 200 | 141 | – |
| O=[N+]([O-])C(=C(Cl)Cl)/C(Cl)=C(\Cl)Br | – | – | inactive |

| Compound | EC50 [µM] | IC50 [µM] | outcome |
| --- | --- | --- | --- |
| O=C(Nc1ccc(Cl)cc1)c1cc(S(=O)(=O)Nc2nc3ncccc3[nH]2)c(SSc2cc(Cl)c(C(=O)Nc3ccc(Cl)cc3)cc2S(=O)(=O)Nc2nc3ncccc3[nH]2)cc1Cl | > 200 | > 200 | – |
| O=S(=O)(O)c1ccc(N=Nc2cc(S(=O)(=O)O)c3ccccc3c2O)c2ccccc12 | > 100 | > 100 | – |
| COc1ccc(-c2cc3c(c4cc(OC)ccc24)C(=O)OC3=O)cc1 | > 11.2 | > 11.2 | – |
| CCC(=O)NC(NNS(=O)(=O)c1ccc(C)cc1)(C(F)(F)F)C(F)(F)F | > 200 | 35.5 | – |
| CCCCCC=C(c1cc(Cl)c(OC)c(C(=O)OCC)c1)c1cc(Cl)c(OC)c(C(=O)OCC)c1 | > 10 | > 10 | – |
| C#CCCCCC#Cc1ccccc1C(=O)C=[N+]=[N-] | > 110 | 91.2 | – |
| CN1C(=O)NC2(C1=O)C(=O)N(C)C(=O)N2C (stereo unspecified) | > 1100 | > 1100 | – |
| CC(=O)OCC1OC([n+]2c([O-])cc(=O)n3ccsc32)C(OC(C)=O)C1OC(C)=O (stereo unspecified) | > 589 | > 589 | – |
| OCC(O)C1OC2CC1Nc1ccccc1N2 (stereo unspecified) | > 200 | 97.7 | – |
| CC(Cc1ccccc1)NC1=NCCO1 (stereo unspecified) | > 200 | 145 | – |
| CC(=O)/C(=N\Nc1ccc(Cl)cc1)C(C)=Nc1ccc(C)cc1 | > 200 | 30.2 | – |
| COc1ccc(C(NC(=O)C[C@@H](C(=O)N(C)C(C)C(=O)O)N(C)C(=O)[C@@H]2CCCN2C(=O)[C@H](C(C)C)N(C)C(=O)C(C(C)C)N(C)C(=O)[C@H](Cc2ccccc2)N(C)C(=O)C(NC(=O)OC(C)(C)C)C(C)C)c2ccc(OC)cc2)cc1 (stereo partly specified) (Boc-[ξV][NMeF][ξNMeV][NMeV]P[NMeD](X13)[ξNMeA]-OH) | > 158 | 23.4 | – |
| C=C(C(=O)O)C1CC[C@@]2(C)CCC[C@@](C)(O)C2C1 (stereo partly specified) | > 200 | > 200 | – |
| CC1(O)CCC2(C)C(=O)C1(C)CCC21OCCO1 (stereo unspecified) | – | – | inactive |
| Cc1cc(=O)[nH]c(CNC(=O)c2cccc(C(=O)NCc3cc(=O)[nH]c(C)n3)c2)n1 | > 617 | > 617 | – |
| CSc1nc2c(c(=O)n1C)N=C(c1ccc([N+](=O)[O-])cc1)CC(c1ccccc1)N2 (stereo unspecified) | > 200 | 155 | – |
| CCCCCCCCCCSS(=O)(=O)c1ccc(C)cc1 | > 21.9 | 9.55 | – |
| COc1ccccc1NC1=NCC(C)S1 (stereo unspecified) | > 200 | > 200 | – |
| CC1=CC(=O)C(=CN2C(=O)/C(=C\c3cccnc3)NC2=S)C(=O)O1 | > 200 | > 200 | – |
| CCOC(=O)c1ccc(CS(=O)(=O)c2ccc(N)cc2)c([N+](=O)[O-])c1 | > 100 | > 100 | – |
| S=C(S)N1CCOCC1 | > 200 | 0.724 | – |
| O=C1c2cccc(O)c2Cc2c(O)cc(CO)cc21 | > 100 | 52.5 | – |
